{"source": "patent US7981878B2", "about": "“Tumor treatment with gliotoxin derivatives” (priority 2005, dated 2011)", "key": {"B-CLL cells": {"test_system": "B-CLL cells", "experiment": "Apoptosis of B-CLL cells by FACS (Probidium iodide/annexinV)", "assay_type": "cell-based, human", "conditions": "for apoptosis: 0.2 μM gliotoxin, 4 hours", "protocol": "(§1) FIG. 3: Gliotoxin is a potent Notch2 trans-activation inhibitor in B-CLL cells. (A) EMSA showing the inhibition of DNA-bound Notch2IC complexes in the presence of 0.2 μg Gliotoxin. B-CLL samples (n=10) were cultured in the presence of 1 ng/ml TPA with or without 0.2 μM Gliotoxin for 24 hours. Nuclear extracts were subjected to EMSA using a oligonucleotide probe spanning a well defined CBF1/NotchIC binding site derived from the CD23a promoter. (B). Corresponding FACS analysis (plus 10 additional B-CLL samples) showing the downregulation of the Notch2 target gene CD23 as well as the induction of apoptosis of Gliotoxin treated B-CLL samples. Columnes represent the percentage of CD19^+CD23^+ (grey bars) and apoptotic cells (black bars: including early apoptotic cells single positive for AnnexinV, and late apoptotic cells double positive for AnnexinV and probidium iodide), respectively.\nFIG. 4: Gliotoxin induces apoptosis in unstimulated as well as in TPA-stimulated B-CLL cells within 4 hours. Normal PBMCs (peripheral blood mononuclear cells) from healthy donors show a markedly lower Notch2 activity. Although gliotoxin inhibits Notch2 also in normal, TPA-stimulated cells, the gliotoxin-caused apoptosis rate is markedly lower in normal cells as compared to B-CLL cells. Non-stimulated and TPA stimulated PBMC's from healthy donors (HD) are less sensitive to 0.2 μM Gliotoxin despite a basal Notch2 activity. PBMC's and CLL cells were incubated with 0.2 μM Gliotoxin with or without TPA for 4 hours and the Notch2 activity as well as the percentage of apoptotic cells were determined by EMSA and FACS analysis, respectively.\n(§2) As drug screening model, a cell culture system was established which conserves the phenotype of freshly isolated B-CLL cells (3×10^6 B-CLL cells/ml RPMI medium+10% FCS, supplemented with 1 ng/ml of TPA). Notch2 activity in the cell nucleus is determined by means of EMSA (electrophoretic mobility shift assay) experiments, and the cell viability (Probidium iodide/annexinV) and CD23 expression (Notch2 target gene) is determined by means of FACS (flow cytometry) analyses, respectively.\nB-CLL cells were cultured for 24 h in the presence of 0.2 μM/ml of gliotoxin. This treatment led to a dramatic loss of the transcriptional Notch2 activity, as shown in the following representative EMSA (FIG. 3).\nAfter 4 hours of gliotoxin treatment, massive signs of the starting apoptosis (AnnexinV+) could already be recognized in B-CLL cells. This effect was increased by TPA (a phorbol ester which stimulates the activation of lymphocytes)."}, "CD23": {"test_system": "CD23", "experiment": "CD23 expression (Notch2 target gene) in B-CLL cells by FACS", "assay_type": "cell-based, human", "conditions": "0.2 μM gliotoxin, 24 h", "protocol": "as §1\nas §2, with “respectively. […]” for “respectively.”"}, "K562 (CML)": {"test_system": "K562 (CML)", "experiment": "Apoptosis FACS in leukaemia cell line K562", "assay_type": "cell-based", "conditions": "K562, 0.2 μM gliotoxin, 24 h", "protocol": "FIG. 7: (A) The apoptotic activity of gliotoxin on further B-CLL patient samples (CLL4-CLL8) is illustrated. The (non-Notch2-associated) leukaemia cell lines (or the leukaemia cell lines not characterised by ligand-independent Notch2 fragments) Jurkat (T-ALL), SH1 (hairy cell carcinoma), RL-7 and K562 (CML) are resistant to a treatment with 0.2 μM (corresponding to 60 ng/ml) of gliotoxin. Cells were incubated for 24 h+/−gliotoxin, and the percentage of apoptotic cells (probidium-iodide+/annexinV+) was determined by means of FACS analysis. In none of the 4 non-Notch2-associated cell lines indicated, the application of 0.2 μM of gliotoxin led to a significant induction of apoptosis within 24 hours. The cytotoxic effect of Gliotoxin correlates with the Notch2 activity in leukemias. (B) Corresponding EMSA showing the activity of Notch2 in B-CLL cells and in leukemic cell lines (Jurkat, SH1, RL7, and K562)."}, "[1]": {"test_system": "Hep3B (hepatocellular carcinoma)", "experiment": "Cell count analysis Hep3B", "assay_type": "cell-based, human", "conditions": "200 nM gliotoxin, 72 h", "protocol": "(§3) FIG. 8 a-d: Effects of gliotoxin on cell counts of various human tumour cell lines in vitro. Cell counts of a) hepatocellular carcinoma cell lines HepG2, Huh7, SNU398, Hep3b, HeLa (cervix) and the cholangiocarcinoma cell line NEC as well as b) the pancreatic cancer cell line Panc-1 and the melanoma cell lines d) MelJuso, Meljuso-Bcl-2 (+) and 607B after 72 h treatment with 200 nM gliotoxin; c-d) Cell count dose range experiments with c) pancreatic carcinoma cell lines Panc-1 and MiaPaCa as well as melanoma cell lines MelJuso, 518A2 and 607B using 25, 50 100 and 200 nM gliotoxin for 24 h. All data are given relative to control ±standard deviation.\n(§4) Tumour cells were seeded at a density of 10,000 cells/well in 24-well plates. 24 h after seeding, medium containing gliotoxin was added to yield desired concentrations of gliotoxin. At time points indicated, culture medium was removed by suction. Adherent cells were washed with DPBS (Cambrex, Verviers, Belgium) and incubated with trypsin (Gibco) at 37° C. Detached cells were transferred to test tubes containing Cellpack isotonic fluid (Sysmex Europe, Bornbarch, Germany) and counted with a Coulter Z1 electronic cell counter (Beckman Coulter, Bedford, UK)."}, "[2]": {"test_system": "HeLa cells (cervix carcinoma)", "experiment": "Cell count analysis HeLa", "assay_type": "cell-based, human", "conditions": "0.2 μM gliotoxin, within 72 hours", "protocol": "as §3, §4"}, "Meljuso-wt (melanoma)": {"test_system": "Meljuso-wt (melanoma)", "experiment": "Cell count analysis Meljuso-wt", "assay_type": "cell-based, human", "protocol": "as §3, §4"}}, "data": [{"compound": "CN1C(=O)[C@]23CC4=CC=C[C@H](O)[C@H]4N2C(=O)[C@@]1(CO)SS3", "note": "[gliotoxin, [3R-(3α,5aβ,6β,10aα)]-2,3,5a,6-tetrahydro-6-hydroxy-3-(hydroxymethyl)-2-methyl-10H-3,10a-epi-dithiopyrazino[1,2-a]indol-1,4-dion]", "values": [{"measurement": "mean value of apoptosis", "setting": "B-CLL cells; B-CLL cells cultured 24 h with 0.2 μM gliotoxin, n=10", "value": 73, "unit": "%"}, {"measurement": "response", "setting": "B-CLL cells; B-CLL-cases, 0.2 μM (60 ng/ml)", "value": "~100", "unit": "%"}, {"measurement": "apoptosis", "setting": "B-CLL cells; TPA-stimulated B-CLL cells", "value": 73, "unit": "%"}, {"measurement": "apoptosis", "setting": "B-CLL cells; non-stimulated B-CLL cells", "value": 54, "unit": "%"}, {"measurement": "CD23 expression", "setting": "CD23", "value": "loss of the CD23 expression"}, {"measurement": "induction of apoptosis (probidium-iodide+/annexinV+)", "setting": "K562 (CML)", "value": "resistant"}, {"measurement": "mean reduction of cell numbers compared to vehicle treated controls", "setting": "[1]", "value": 88, "unit": "%"}, {"measurement": "effect on the cell count", "setting": "[2]", "value": "no significant effect"}, {"measurement": "response", "setting": "Meljuso-wt (melanoma); MelJuso (−BCL2), 0.2 μM (60 ng/ml)", "value": "~100", "unit": "%"}, {"measurement": "cytotoxicity in dose range experiment (cell count)", "setting": "Meljuso-wt (melanoma); Meljuso, 25, 50, 100 and 200 nM, 24 h", "value": "clear dose dependent cytotoxicity"}, {"measurement": "effect on cell count", "setting": "Meljuso-wt (melanoma); Meljuso-wt, 200 nM gliotoxin, 72 h", "value": "very effective"}]}]}
